Source: US6417327B1, “Peptide capable of regulating physiological function of FGF-5 and pharmaceutical composition containing the peptide” (Agency of Industrial Science and Technology, priority 1999, dated 2002)
No end group written: not given here.

Experiments:
FGF-5 = assay: Determination of DNA-synthesis-inhibiting activity (uptake of tritium, 3HTdR) in the presence of recombinant FGF-5; assay type: cell-based, mouse; details: Balb/c3T3 cells, test solution FGF-5(+) with heparin 5 μg/ml, recombinant FGF-5 10^-10 M, peptide 10^-7 to 10^-3 M
Procedure: (§1) Balb/c3T3 cells (1.5×10^4 cells/500 μl) were plated on a 24-well culture plate and cultured in a DMEM medium for 24 hours in the presence o f 10% FCS. After washing the cells with the medium, a DMEM medium containing 0.3% FCS was added thereto to further culture the cells for 24 hours to synchronize the cells. To the mixture, test solutions [FGF-5(+)] containing heparin (5 μg/ml), one of FGF-5 peptides 1-5 synthesized in Example 1 (10^−7 to 10^−3 M) and the recombinant FGF-5 prepared in Reference Example 1 (10^−10 M) were added. After 16 hours of cultivation, 3 HTdR was added, and the cells were further cultured for 4 hours in a CO2 incubator. The supernatants were aspirated. The cells were washed with PBS, added with 10% TCA (125 μl), and incubated at room temperature. After confirming the immobilization of the cells, the supernatants were discarded. Five-hundred ul of 0.5N NaOH was added and the mixture was further incubated at room temperature for an hour, added with 3 ml scintillator and determined for the uptake of tritium into the cells with a liquid scintillation counter.
As controls for the determinations of inhibiting and promoting activities, a test solution containing heparin (5 μg/ml) and the recombinant FGF-5 (10^−10 M) prepared in Reference Example 1 was used.

Balb/c3T3 cells = assay: Determination of DNA-synthesis-promoting activity (uptake of tritium, 3HTdR) without FGF-5; assay type: cell-based; details: test solution FGF-5(-) with heparin, peptide 10^-7 to 10^-3 M, without the addition of FGF-5
Procedure: as §1
The uptake of tritium into cells was determined as described in (1) above with a liquid scintillation counter except that test solutions [FGF-5(−)] containing heparin and one of FGF-5 peptides 1-5 synthesized in Example 1 were used. […]

mouse bone marrow cells = assay: Differentiating and proliferating activities to give megakaryocytes (increase of acetylcholineesterase activity); assay type: cell-based; details: cultured 4 days, acetylcholineesterase activity by fluorescence
Procedure: The differentiating and proliferating activities to give megakaryocytes were determined for this peptide, as the increase of acetylcholineesterase activity, by using mouse bone marrow cells as follows.
Bone marrow cells were taken from femur of ICR mouse (male, 6 weeks old), suspended in RPMI 1640 medium containing 1% fetal calf serum (FCS), and centrifuged. The supernatant was removed and the resultant was suspended in RPMI 1640 medium containing 0.5 mM DFP (diisopropylfluorophosphate) and 0.1% BSA (bovine serum albumin), and left to stand at room temperature for 20 min. Thereafter, the cells were washed with the same culture twice and suspended in RPMI 1640 medium containing 1% Neutridoma-SP and 0.1% BSA such that the number of cells was 2×10^6 cells/ml. The thus-prepared bone marrow cell suspension was dispensed in 100 μl into a 96-well culture plate, and cultured with a test solution containing 50 μl of FGF-5 peptide 6 at 37° C. for 4 days in the presence of 5% CO2.
Thereafter, the supernatant was removed, and the resultant was washed with PBS(−) twice and added with 180 μl 50 mM HEPES buffer (pH 7.6) containing 0.2% (w/v) Triton X-100 and 0.12 M NaCl and with 20 ul solution containing 5.6 mM acetylthiocholine iodide. […]

platelets = assay: Determination of thrombocytosis activity (number of platelets); assay type: in vivo; details: ICR mice, intraperitoneal; for increase of platelet: 1 μg/kg
Procedure: ICR mice (male, 6 weeks old, weights 29-32 g) were grouped into 4 groups of six mice. A test solution containing the above-mentioned FGF-5 peptide 6 was intraperitoneally administered for 10 successive days.
The peptide (3.3 mg/ml) in an injection solution (0.9% saline containing 100 μg/ml bovine serum albumin (Fraction V)) was administered to the mice at 0.3 ml/mouse (33 mg/kg) At the same time, human recombinant thrombopoietin solution (0.1 μg/ml) and human recombinant interleukin 6 solution (0.1 μg/ml) were prepared, and intraperitoneally administered for 0.3 ml per mouse (1 μg/kg). Five μl of blood was collected from the caudal vein of each mouse, and immediately mixed with 20 μl of 3.8% sodium citrate in a test tube. Subsequently, the blood mixtures were serially diluted twice with Cellpack and determined for the number of platelets, as well as to determine the numbers of erythrocytes and hemacrit values with Sysmex F-820 (TOA Electronics Ltd.)

Gln Val His Arg (QVHR; SEQ ID NO3 represents a partial sequence (corresponding to amino acids 120-123) of the amino acid sequence of human FGF-5S.) [FGF-5 peptide 5]
DNA-synthesis-inhibiting activity (FGF-5): inhibited DNA synthesis

HEANMLS [FGF-5 peptide 3]
DNA-synthesis-promoting activity (Balb/c3T3 cells): promoted DNA synthesis

HEANMLSQVHR [FGF-5 peptide 4]
DNA-synthesis-inhibiting activity (FGF-5): inhibited DNA synthesis

PDGKVNGSHEANM [FGF-5 peptide 6]
differentiating and proliferating activities to give megakaryocytes (mouse bone marrow cells): exerts differentiating and proliferating activities to give megakaryocytes | increase of the numbers of platelets (platelets; 33 mg/kg, 10 successive days, two to 4 days after the administration): 1.6 folds

Pro Asp Gly Lys Val Asn Gly Ser His Glu Ala Asn Met Leu Ser GIn Val His Arg (PDGKVNGSHEANMLSQVHR; SEQ ID NO10 represents a partial sequence of the amino acid sequence of human FGF-5.) [FGF-5 peptide 1]
DNA-synthesis-promoting activity (Balb/c3T3 cells): promoted DNA synthesis

human recombinant interleukin 6: human recombinant interleukin 6 solution (0.1 μg/ml), comparator in the platelet test
increase of platelet (platelets): about 1.6 fold

human recombinant thrombopoietin: human recombinant thrombopoietin solution (0.1 μg/ml), comparator in the platelet test
increase of platelet (platelets): about 1.6 fold
